Data taken from patent US20090169603A1, “Adhesive Pharmaceutical Preparation” (NITTO DENKO CORPORATION, priority 2005, published 2009).
Where two headings read alike, the source gives them in different places. One block for each compound: values may come before it.

Key:
[1] = Measurement of viscosity at 40° C. (type E viscometer); format: physicochemical
Description: Viscosity of the drug is measured using a type E viscometer while keeping the drug at a predetermined temperature. According to the invention, when the viscosity of a drug at a predetermined temperature is from 0.05 to 100,000 mPa·s, the drug is liquid at the predetermined temperature. In addition, the “logPow” is an index which expresses hydrophilic property or hydrophobicity of the drug, and is a value measured on individual drugs in accordance with the method described in “OECD GUIDELINE FOR THE TESTING OF CHEMICALS 107, Adopted by the Council on 27 Jul. 1995, Partition Coefficient (n-octanol/water), Shake Flask Method)”, and the base of logarithm of logPow is 10.
In addition, the viscosity of a drug at 40° C. is measured using a type E viscometer while heating the drug at 40° C.
5. Measurement of Viscosity at 40° C.
Viscosity of drugs at 40° C. was measured using a type E viscometer (type E viscometer mfd. By Tokyo Keiki, VISCONIC Type ED).

[2] = Measurement of logPow (OECD 107, n-octanol/water, shake flask method); format: physicochemical
Description: In this case, the “drug which is liquid at room temperature or around room temperature” means a drug which is liquid at a temperature where the adhesive pharmaceutical preparation after its production is generally preserved, namely any temperature within a temperature range of from 1 to 40° C. Within such a temperature range, the drug has such a degree of fluidity that it can cause bleeding. Viscosity of the drug is measured using a type E viscometer while keeping the drug at a predetermined temperature. According to the invention, when the viscosity of a drug at a predetermined temperature is from 0.05 to 100,000 mPa·s, the drug is liquid at the predetermined temperature. In addition, the “logPow” is an index which expresses hydrophilic property or hydrophobicity of the drug, and is a value measured on individual drugs in accordance with the method described in “OECD GUIDELINE FOR THE TESTING OF CHEMICALS 107, Adopted by the Council on 27 Jul. 1995, Partition Coefficient (n-octanol/water), Shake Flask Method)”, and the base of logarithm of logPow is 10.
The “logPow” is obtained by a calculation after partitioning a drug into water layer and n-octanol layer and determining the drug concentration of each layer by an appropriate method, in accordance with the method described in the above-mentioned guideline. The quantitative determination of drugs is not particularly limited so long as it is a method in which its determinability was verified, for example, by verifying linearity of its calibration curve, but in general, an absorptiometry, a gas chromatography or a high performance liquid chromatography is used. […] In addition, when the drug is a dissociating substance, the logPow is measured while suppressing its dissociation in accordance with the guideline. That is, the logPow is measured using a buffer of appropriate pH as the water layer under a condition of a free acid or free base. When the drug is an acidic drug, a buffer having a pH value which is lower by a factor of 1 than the pKa value of the drug is used. When the drug is a basic drug, a buffer having a pH value which is higher by a factor of 1 than the pKa value of the drug is used.
In this connection, although the measurement range of logPow is generally set from −2 to 4 according to this guideline, the measurement range of logPow can be set to −2 to 5 by increasing the determination sensitivity by making use of high sensitivity analytical methods such as a high performance liquid chromatography.
LogPow was measured in accordance with the “OECD GUIDELINE FOR THE TESTING OF CHEMICALS 107, Adopted by the Council on 27th Jul. 1995, Partition Coefficient (n-Octanol/water), Shake Flask Method)”. Water layers, determination methods and results of the LogPow measurement at the time of the measurement of LogPow are shown in Table 3.

[3] = water layer pH 10 buffer, HPLC method

Viscosity [1]: 280 mPa·s
logD ([2]; n-octanol/water, water layer pH 9.2 buffer, HPLC method): > 5
LogPow ([2]; water layer pH 9.2 buffer, HPLC method): base (>5.0)
LogPow ([2]; water layer pH 9.2 buffer, HPLC method, listed as terbinafine): > 5.0
SMILES: CN(C/C=C/C#CC(C)(C)C)Cc1cccc2ccccc12 [Terbinafine free base]

Viscosity [1]: 4500 mPa·s
Viscosity ([1]; listed as gallopamil): 4,500 mPa·s
LogPow [2, 3]: 4.8
SMILES: COc1ccc(CCN(C)CCCC(C#N)(c2cc(OC)c(OC)c(OC)c2)C(C)C)cc1OC (stereo not shown) [Gallopamil free base, gallopamil free base]

LogPow ([2]; water layer distilled water, titration method): −1.1
SMILES: OCC(O)CO [Glycerol]

More lines, now with the values behind:

SMILES: CCOCCn1c(N2CCCN(C)CC2)nc2ccccc21 [Emedastine free base, emedastine free base]
Viscosity [1]: 280 mPa·s
logD ([2]; n-octanol/water, water layer pH 10 buffer, HPLC method): 2.4
LogPow [2, 3]: base (2.4)
LogPow ([2]; water layer pH 10 buffer, HPLC method, listed as emedastine free base): 2.4

SMILES: CC=CC(=O)N(CC)c1ccccc1C (mixture of isomers) [Crotamiton, crotamiton]
Viscosity [1]: 16 mPa·s
logP ([2]; n-octanol/water, water layer distilled water, HPLC method): 3.1
LogPow ([2]; water layer distilled water, HPLC method): Crotamiton (3.1)
LogPow ([2]; water layer distilled water, HPLC method, listed as crotamiton): 3.1
